From patent publication US8507539B2, “Potassium channel blockers and uses thereof” (Bionomics Limited, priority 2008, dated 2013)
pIC50: −log10 of the molar value.

Target: hKv1.3 (Homo sapiens, UniProt P22001)
Assay: Whole-cell patch-clamp block of Kv1.3 current in CHO cells stably expressing hKv1.3
Type: cell-based
Details: CHO cells stably expressing hKv1.3, whole-cell patch clamp; reported as ranges; read-out: IC50 (Kv1.3)
Experimental: The effectiveness of the generated compounds in blocking the Kv1.3 current was assayed on CHO cells stably expressing hKv1.3. Cells were grown in F12 Kaighns' medium supplemented with 10% fetal calf serum, 2 mM L-glutamine, 1 mM Na^+ pyruvate, 100 units/ml penicillin, 100 Fg/ml streptomycin and 500 μg/ml G418 (to keep them under selection pressure). Kv1.3 currents were measured using the whole-cell configuration of the patch-clamp technique and were evoked by 500 ms depolarising voltage pulses to +40 mV from a holding potential of −80 mV at 30 sec intervals. Cells were continuously bathed in Ringers solution containing (mM): 160 NaCl, 4.5 KCl, 2.5 CaCl2, 1 MgCl2, 10 HEPES, pH 7.4, 290-310 mOsm. The internal (pipette) solution contained (mM): 134 KF, 2 MgCl2, 10 HEPES, 10 EGTA (pH 7.2, 290-310 mOsm). Series resistance compensation (60-80%) was applied when the peak current amplitude exceeded 2 nA. Compounds initially dissolved in DMSO were diluted in bath solution (final DMSO concentration 0.5%) and applied directly to the recording chamber at increasing concentrations allowing ample time for steady state block to be achieved between each concentration. Each compound was tested at 4-5 different concentrations in triplicate. IC50 values were determined by fitting the average normalised reduction of the current integral to the Hill equation.

hKv1.3, sequence (P22001 whole entry): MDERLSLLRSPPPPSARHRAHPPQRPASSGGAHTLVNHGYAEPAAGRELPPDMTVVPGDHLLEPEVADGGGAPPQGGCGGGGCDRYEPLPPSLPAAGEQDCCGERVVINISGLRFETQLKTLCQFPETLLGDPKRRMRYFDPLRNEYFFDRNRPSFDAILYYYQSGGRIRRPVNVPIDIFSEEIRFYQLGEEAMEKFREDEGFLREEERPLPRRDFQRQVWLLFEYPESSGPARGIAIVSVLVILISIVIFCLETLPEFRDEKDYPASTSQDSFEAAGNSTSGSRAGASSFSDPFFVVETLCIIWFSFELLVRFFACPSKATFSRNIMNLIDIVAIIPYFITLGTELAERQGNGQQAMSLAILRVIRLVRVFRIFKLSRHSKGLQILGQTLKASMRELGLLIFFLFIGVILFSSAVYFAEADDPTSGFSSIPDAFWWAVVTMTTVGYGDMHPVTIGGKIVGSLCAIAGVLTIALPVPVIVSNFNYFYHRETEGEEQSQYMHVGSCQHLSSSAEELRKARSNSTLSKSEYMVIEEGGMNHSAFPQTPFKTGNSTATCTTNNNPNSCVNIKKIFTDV

Row | Structure (SMILES) | pIC50
1 | CC(=O)c1c(OCCN2CCOCC2)c(OCCC(C)c2ccc(F)cc2)c2oc(C(F)F)nc2c1C (stereo not shown) [Example 30c, 5-Acetyl-7-[3-(4-fluorophenyl)butoxy]-6-(2-morphin-4-yl-ethoxy)-4-methyl-2-difluoromethyl-benzo[d]oxazole] | 6.70 to 7.30
2 | CC(=O)c1c(OCCN2CCN(C)CC2)c(OCCC(C)c2ccc(F)cc2)c2oc(C)nc2c1C (stereo not shown) [Example 25] | 6.00 to 6.70
3 | CC(=O)c1c(OCCn2ccnc2)c(OCCC(C)c2ccc(F)cc2)c2oc(C)nc2c1C (stereo not shown) [Example 10b, 5-Acetyl-7-[3-(4-fluorophenyl)butoxy]-6-(2-imidazol-1-yl-ethoxy)-2,4-dimethyl-benzooxazole] | 6.70 to 7.30
4 | CC(=O)c1c(OCCn2ccnc2C)c(OCCC(C)c2ccc(F)cc2)c2oc(C(C)C)nc2c1C (stereo not shown) [Example 34, 5-Acetyl-7-[3-(4-fluorophenyl)butoxy]-2-isopropyl-1-4-methyl-6-[2-(2-methyl-1H-imidazol-1-yl)ethoxy]-benzo[d]oxazole] | 6.00 to 6.70
5 | CC(=O)c1c(OC2CN(C3CCCC3)C2)c(OCCC(C)c2ccc(F)cc2)c2oc(C)nc2c1C (stereo not shown) [Example 41b] | 6.70 to 7.30
6 | CC(=O)c1c(OCCNC(C)(C)C)c(OCCC(C)c2ccc(F)cc2)c2oc(C)nc2c1C (stereo not shown) [Example 26, 5-Acetyl-6-(2-(N-tertbutylamino)ethoxy)-7-[3-(4-fluorophenyl)butoxy]-2,4-dimethyl-benzo[d]oxazole] | 6.00 to 6.70
7 | CC(=O)c1c(OCCn2nnc(N)n2)c(OCCC(C)c2ccc(F)cc2)c2oc(C)nc2c1C (stereo not shown) [Example 11a, 5-Acetyl-6-[2-(5-aminotetrazol-2-yl)-ethoxy]-7-[3-(4-fluorophenyl)butoxy]-2,4-dimethyl-benzooxazole] | > 7.30
8 | CC(=O)c1c(OCCn2ccnc2)c(OCCC(C)c2ccc(F)cc2)c2ocnc2c1C (stereo not shown) [Example 5, 5-Acetyl-7-[3-(4-fluorophenyl)butoxy]-4-methyl-6-(2-N-imidazolyl-ethoxy)benzooxazole] | > 7.30
9 | CC(=O)c1c(OCCN2CCCC(F)(F)C2)c(OCCC(C)c2ccc(F)cc2)c2oc(C(C)C)nc2c1C (stereo not shown) [Example 33b, 5-Acetyl-6-[2-(3,3-difluoropiperidin-1-yl)ethoxy]-7-[3-(4-fluorophenyl)butoxy]-2-isopropyl-4-methylbenzo[d]oxazole] | 6.70 to 7.30
10 | CC(=O)c1c(OCCc2ccccn2)c(OCCC(C)c2ccc(F)cc2)c2oc(C)nc2c1C (stereo not shown) [Example 8, 5-Acetyl-7-[3-(4-fluorophenyl)butoxy]-2,4-dimethyl-6-(2-pyridin-2-yl-ethoxy)-benzooxazole] | > 7.30
11 | CC(=O)c1c(OCCN2CCOCC2)c(OCCC(C)c2ccc(F)cc2)c2oc(C3CC3)nc2c1C (stereo not shown) [Example 35d, 5-Acetyl-7-[3-(4-fluorophenyl)butoxy]-2-cyclopropyl-4-methyl-6-(2-morpholin-4-yl-ethoxy)-benzo[d]oxazole] | 6.70 to 7.30
12 | CC(=O)c1c(OCCN2CCOCC2)c(OCCC(C)c2ccc(F)cc2)c2oc(C)nc2c1C (stereo not shown) [Example 6c, 5-Acetyl-7-[3-(4-fluorophenyl)butoxy]-2,4-dimethyl-6-(2-morpholin-4-yl-ethoxy)-benzooxazole] | > 7.30
13 | CC(=O)c1c(OCCN)c(OCCC(C)c2ccc(F)cc2)c2oc(C)nc2c1C (stereo not shown) [Example 22, 5-Acetyl-6-(2-aminiumethoxy)-7-[3-(4-fluorophenyl)butoxy]-2,4-dimethyl-benzo[d]oxazole chloride] | 6.00 to 6.70
14 | Cc1nc2c(C)c(C(C)O)c(OCCN3CCSCC3)c(OCCC(C)c3ccc(F)cc3)c2o1 (stereo not shown) [Example 27, 4-(1-Hydroxyethyl)-7-[3-(4-fluorophenyl)butoxy]-2,4-dimethyl-6-(2-thiomorpholin-4-ylethoxy)-benzo[d]oxazole] | > 7.30
15 | CC(=O)c1c(OCCN2CCOCC2)c(OCCC(C)c2ccc(F)cc2)c2ocnc2c1C (stereo not shown) [Example 2d, 5-Acetyl-7-[3-(4-fluorophenyl)butoxy]-4-methyl-6-(2-morpholin-4-yl-ethoxy)benzooxazole] | > 7.30
16 | CC(=O)c1c(OCCc2cccc[n+]2[O-])c(OCCC(C)c2ccc(F)cc2)c2oc(C)nc2c1C (stereo not shown) [Example 9, 2-(2-(5-acetyl-7-(3-(4-fluorophenyl)butoxy)-2,4-dimethylbenzo[d]oxazol-6-yloxy)ethyl)pyridine 1-oxide] | 6.00 to 6.70
17 | CC(=O)c1c(OCCN2CCS(=O)(=O)CC2)c(OCCC(C)c2ccc(F)cc2)c2oc(C)nc2c1C (stereo not shown) [Example 15, 5-Acetyl-6-[2-(1,1-dioxo-thiomorpholin-4-yl)-ethoxy]-7-[3-(4-fluorophenyl)butoxy]-2,4-dimethyl-benzooxazole] | > 7.30

Row | Structure (SMILES) | pIC50
18 | CC(=O)c1c(OCCN=C(N(C)C)N(C)C)c(OCCC(C)c2ccc(F)cc2)c2oc(C)nc2c1C (stereo not shown) [Example 23, 5-Acetyl-6-(2-(N,N,N′,N′-tetramethylguanidinium)ethoxy)-7-[3-(4-fluorophenyl)butoxy]-2,4-dimethyl-benzo[d]oxazole chloride] | 6.00 to 6.70
19 | CC(=O)c1c(OCCN2CCOCC2)c(OCCCc2ccccc2)c2oc(C)nc2c1Cl [Example 37j] | 6.00 to 6.70
20 | CC(=O)c1c(OCCN2CCOCC2)c(OCCC(C)c2ccc(F)cc2)c2oc(C)nc2c1Cl (stereo not shown) [Example 38h, 5-Acetyl-4-chloro-7-(3-(4-fluorophenyl)butoxy)-6-(2-(morpholin-4-yl)ethoxy)-2-methyl-benzo[d]oxazole] | 6.70 to 7.30
21 | CC(=O)c1c(OCCN2CCOCC2)c(OCCC(C)c2ccc(F)cc2)c2oc(C(C)C)nc2c1C (stereo not shown) [Example 32c, 5-Acetyl-7-[3-(4-fluorophenyl)butoxy]-2-isopropyl-4-methyl-6-(2-morpholin-4-O-ethoxy)-benzo[d]oxazole] | > 7.30
22 | CC(=O)c1c(OCCN(C)C)c(OCCC(C)c2ccc(F)cc2)c2ocnc2c1C (stereo not shown) [Example 4b, 5-Acetyl-7-[3-(4-fluorophenyl)butoxy]-4-methyl-6-(2-N,N-dimethylamino-ethoxy)benzooxazole] | 6.00 to 6.70
23 | CC(=O)c1c(OC2CCN(C3CCCC3)CC2)c(OCCC(C)c2ccc(F)cc2)c2oc(C)nc2c1C (stereo not shown) [Example 40c] | 6.70 to 7.30
24 | CC(=O)c1c(OCCc2ccccn2)c(OCCC(C)c2ccc(F)cc2)c2oc(C(F)(F)F)nc2c1C (stereo not shown) [Example 29, 5-Acetyl-7-[3-(4-fluorophenyl)butoxy]-4-methyl-6-(2-pyridin-2-yl-ethoxy)-2-trifluoromethyl-benzo[d]oxazole] | 6.70 to 7.30
25 | CC(=O)c1c(OCCN2CCCC(F)(F)C2)c(OCCC(C)c2ccc(F)cc2)c2oc(C)nc2c1Cl (stereo not shown) [Example 39, 5-Acetyl-4-chloro-7-(3-(4-fluorophenyl)butoxy)-6-(2-(3,3-difluoropiperidin-1-yl)ethoxy)-2-methyl-benzo[d]oxazole] | 6.70 to 7.30
26 | CC(=O)c1c(OCCN2CCC(=O)CC2)c(OCCC(C)c2ccc(F)cc2)c2oc(C)nc2c1C (stereo not shown) [Example 12, 1-(2-{5-Acetyl-7-[3-(4-fluorophenyl)butoxy]-2,4-dimethyl-benzooxazol-6-yloxy}-ethyl)-piperidin-4-one] | 6.70 to 7.30
27 | CC(=O)c1c(OCCN2CCOCC2)c(OCCCc2ccccc2)c2ocnc2c1C [Example 1i, 5-Acetyl-4-methyl-6-(2-morpholinoethoxy)-7-(3-phenylpropoxy)-benzo[d]oxazole] | 6.70 to 7.30
28 | CC(=O)c1c(OCCN(C)C)c(OCCC(C)c2ccc(F)cc2)c2oc(C)nc2c1C (stereo not shown) [Example 7, 5-Acetyl-6-(2-dimethylaminoethoxy)-7-[3-(4-fluorophenyl)butoxy]-2,4-dimethyl-benzooxazole] | 6.00 to 6.70
29 | CC(=O)c1c(OCCN2CCC(C)(O)CC2)c(OCCC(C)c2ccc(F)cc2)c2oc(C)nc2c1C (stereo not shown) [Example 19, 5-Acetyl-7-[3-(4-fluorophenyl)butoxy]-6-[2-(4-hydroxy-4-methyl-piperidin-1-yl)-ethoxy]-2,4-dimethyl-benzooxazole] | 6.70 to 7.30
30 | CC(=O)c1c(OCCN2CC[S+]([O-])CC2)c(OCCC(C)c2ccc(F)cc2)c2oc(C)nc2c1C (stereo not shown) [Example 14, 5-Acetyl-7-[3-(4-fluorophenyl)butoxy]-2,4-dimethyl-6-[2-(1-oxo-thiomorpholin-4-yl)-ethoxy]-benzooxazole] | 6.70 to 7.30
31 | CC(=O)c1c(OCCN2CCCC(F)(F)C2)c(OCCC(C)c2ccc(F)cc2)c2oc(C)nc2c1C (stereo not shown) [Example 43, 5-Acetyl-7-[3-(4-fluorophenyl)butoxy]-6-[2-(3,3-difluoropiperidin-1-yl)-ethoxy]-2,4-dimethyl-benzooxazole] | > 7.30
32 | CC(=O)c1c(OCCn2ccnc2C)c(OCCC(C)c2ccc(F)cc2)c2oc(C)nc2c1C (stereo not shown) [Example 16, 5-Acetyl-7-[3-(4-fluorophenyl)butoxy]-2,4-dimethyl-6-[2-(2-methylimidazol-1-yl)-ethoxy]-benzooxazole] | 6.70 to 7.30
33 | CC(=O)c1c(OCCc2ccccn2)c(OCCC(C)c2ccc(F)cc2)c2ocnc2c1C (stereo not shown) [Example 3, 5-Acetyl-7-[3-(4-fluorophenyl)butoxy]-4-methyl-6-(2-pyridin-2-yl-ethoxy)benzooxazole] | > 7.30
34 | CC(=O)c1c(OCCn2nnnc2N)c(OCCC(C)c2ccc(F)cc2)c2oc(C)nc2c1C (stereo not shown) [Example 11b, 5-Acetyl-6-[2-(5-amino-tetrazol-1-yl)-ethoxy]-7-[3-(4-fluorophenyl)butoxy]-2,4-dimethyl-benzooxazole] | 6.70 to 7.30
